According to PubChem BioAssay (NCI):
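1) Cells in 96-well plates. 2) Compound, 48 h, 5 concentrations. 3) Linear interpolation between surrounding doses. 4) Unreached endpoint = highest concentration. The concentration for full growth arrest is given as TGI.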

Columns and labels:
Assay in all cases: inhibition of tumour cell growth, NCI panel, 48 h
[1] = tested on: PC-3 prostate
[2] = tested on: NCI-H226 lung
[3] = tested on: OVCAR-5 ovarian
[4] = tested on: 786-0 renal
[5] = tested on: UACC-62 melanoma
[6] = tested on: SK-MEL-2 melanoma
[7] = tested on: SW-620 colon
[8] = tested on: MCF7 breast
[9] = tested on: SF-268 CNS
[10] = tested on: EKVX NSCLC
[11] = tested on: SK-MEL-28 melanoma
[12] = tested on: BT-549 breast
[13] = tested on: M14 melanoma
[14] = tested on: OVCAR-8 ovarian
[15] = tested on: DU-145 prostate
[16] = tested on: A498 renal
[17] = tested on: COLO 205 colon
[18] = tested on: OVCAR-4 ovarian
[19] = tested on: LOX IMVI melanoma
[20] = tested on: NCI-H23 lung
[21] = tested on: SF-295 CNS
[22] = tested on: CAKI-1 renal
[23] = tested on: SK-OV-3 ovarian
[24] = tested on: MDA-N
[25] = tested on: HCC-2998 colon
[26] = tested on: TK-10 renal
[27] = tested on: MALME-3M melanoma
[28] = tested on: SF-539 CNS
[29] = tested on: ACHN renal
[30] = tested on: SK-MEL-5 melanoma
[31] = tested on: HCT-15 colon
[32] = tested on: A549 NSCLC
[33] = tested on: KM12 colon
[34] = tested on: MDA-MB-435
[35] = tested on: HT29 colon
[36] = tested on: UACC-257 melanoma
[37] = tested on: SNB-19 CNS
[38] = tested on: RXF 393 renal
[39] = tested on: HOP-92 NSCLC
[40] = tested on: HCT-116 colon
[41] = tested on: T-47D breast
[42] = tested on: NCI-H522 lung
[43] = tested on: HS 578T breast
[44] = tested on: U251 CNS
[45] = tested on: SNB-75 CNS
[46] = tested on: NCI/ADR-RES ovarian
[47] = tested on: MDA-MB-231 breast
[48] = tested on: OVCAR-3 ovarian
[49] = tested on: SN12C renal
[50] = tested on: NCI-H460 lung
[51] = tested on: RPMI-8226 leukemia
[52] = tested on: IGROV1 ovarian
[53] = tested on: UO-31 renal
[54] = tested on: HOP-62 NSCLC
[55] = tested on: MOLT-4 leukemia
[56] = tested on: SR leukemia
[57] = tested on: HL-60(TB) leukemia
[58] = tested on: CCRF-CEM leukemia
[59] = tested on: K-562 leukemia

## O=C(O)C(Cc1c[nH]c2ccccc12)N1C(=O)c2ccccc2C1=O (configuration not stated)
[1]
  TGI: > 100 µM
[2]
  TGI: > 100 µM
[3]
  TGI: > 100 µM
[4]
  TGI: > 100 µM
[5]
  TGI: > 100 µM
[6]
  TGI: > 100 µM
[7]
  TGI: > 100 µM
[8]
  TGI: > 100 µM
[9]
  TGI: > 100 µM
[10]
  TGI: > 100 µM
[11]
  TGI: > 100 µM
[12]
  TGI: > 100 µM
[13]
  TGI: > 100 µM
[14]
  TGI: > 100 µM
[15]
  TGI: > 100 µM
[16]
  TGI: > 100 µM
[17]
  TGI: > 100 µM
[18]
  TGI: > 100 µM
[19]
  TGI: > 100 µM
[20]
  TGI: > 100 µM
[21]
  TGI: > 100 µM
[22]
  TGI: > 100 µM
[23]
  TGI: > 100 µM
[24]
  TGI: > 100 µM
[25]
  TGI: > 100 µM
[26]
  TGI: > 100 µM
[27]
  TGI: > 100 µM
[28]
  TGI: > 100 µM
[29]
  TGI: > 100 µM
[30]
  TGI: > 100 µM
[31]
  TGI: > 100 µM
[32]
  TGI: > 100 µM
[33]
  TGI: > 100 µM
[34]
  TGI: > 100 µM
[35]
  TGI: > 100 µM
[36]
  TGI: > 100 µM
[37]
  TGI: > 100 µM
[38]
  TGI: > 100 µM
[39]
  TGI: > 100 µM
[40]
  TGI: > 100 µM
[41]
  TGI: > 100 µM
[42]
  TGI: > 100 µM
[43]
  TGI: > 100 µM
[44]
  TGI: > 100 µM
[45]
  TGI: > 100 µM
[46]
  TGI: > 100 µM
[47]
  TGI: > 100 µM
[48]
  TGI: > 100 µM
[49]
  TGI: > 100 µM
[50]
  TGI: > 100 µM
[51]
  TGI: > 100 µM
[52]
  TGI: > 100 µM
[53]
  TGI: > 100 µM
[54]
  TGI: > 100 µM

## Cc1cc(C)c2nccc(NCCCN(C)C)c2c1[N+](=O)[O-]
[1]
  TGI: > 100 µM
[55]
  TGI: > 100 µM
[3]
  TGI: > 100 µM
[4]
  TGI: > 100 µM
[5]
  TGI: > 100 µM
[6]
  TGI: 58.8 µM
[7]
  TGI: > 100 µM
[8]
  TGI: > 100 µM
[9]
  TGI: 95 µM
[10]
  TGI: > 100 µM
[11]
  TGI: 37 µM
[12]
  TGI: > 100 µM
[13]
  TGI: 33.7 µM
[14]
  TGI: > 100 µM
[15]
  TGI: > 100 µM
[16]
  TGI: > 100 µM
[17]
  TGI: 28.5 µM
[18]
  TGI: 30.2 µM
[19]
  TGI: 51.9 µM
[20]
  TGI: 37.2 µM
[21]
  TGI: > 100 µM
[22]
  TGI: > 100 µM
[56]
  TGI: > 100 µM
[23]
  TGI: > 100 µM
[24]
  TGI: > 100 µM
[25]
  TGI: 51.1 µM
[26]
  TGI: > 100 µM
[57]
  TGI: 78.1 µM
[27]
  TGI: 36.4 µM
[28]
  TGI: 84.8 µM
[29]
  TGI: > 100 µM
[30]
  TGI: 26.6 µM
[31]
  TGI: 30.7 µM
[32]
  TGI: > 100 µM
[33]
  TGI: > 100 µM
[34]
  TGI: > 100 µM
[35]
  TGI: 41.5 µM
[36]
  TGI: 33.7 µM
[37]
  TGI: > 100 µM
[38]
  TGI: 47.8 µM
[40]
  TGI: > 100 µM
[58]
  TGI: > 100 µM
[41]
  TGI: > 100 µM
[42]
  TGI: 27.5 µM
[43]
  TGI: > 100 µM
[44]
  TGI: > 100 µM
[45]
  TGI: > 100 µM
[47]
  TGI: > 100 µM
[48]
  TGI: > 100 µM
[49]
  TGI: > 100 µM
[50]
  TGI: > 100 µM
[51]
  TGI: > 100 µM
[52]
  TGI: 92.3 µM
[59]
  TGI: > 100 µM
[53]
  TGI: 42.8 µM
[54]
  TGI: > 100 µM

## Fc1cccc(F)c1C1SCc2nc3cc(Cl)ccc3n21 (configuration not stated)
[1]
  TGI: > 100 µM
[55]
  TGI: 54.7 µM
[3]
  TGI: > 100 µM
[4]
  TGI: > 71.1 µM
[5]
  TGI: > 100 µM
[6]
  TGI: > 100 µM
[7]
  TGI: > 100 µM
[8]
  TGI: 34 µM
[9]
  TGI: > 100 µM
[10]
  TGI: > 100 µM
[11]
  TGI: > 100 µM
[12]
  TGI: > 45.6 µM
[13]
  TGI: > 100 µM
[14]
  TGI: > 100 µM
[15]
  TGI: > 100 µM
[17]
  TGI: 36.6 µM
[18]
  TGI: > 100 µM
[19]
  TGI: 40 µM
[20]
  TGI: > 100 µM
[21]
  TGI: > 70.2 µM
[22]
  TGI: > 65.9 µM
[56]
  TGI: 65.7 µM
[23]
  TGI: > 100 µM
[24]
  TGI: > 100 µM
[25]
  TGI: 42.6 µM
[26]
  TGI: > 100 µM
[57]
  TGI: 41.3 µM
[27]
  TGI: > 31.6 µM
[28]
  TGI: > 100 µM
[29]
  TGI: > 100 µM
[30]
  TGI: 30.3 µM
[31]
  TGI: > 100 µM
[32]
  TGI: > 100 µM
[33]
  TGI: 72.9 µM
[34]
  TGI: > 100 µM
[35]
  TGI: 31.3 µM
[36]
  TGI: > 60.6 µM
[37]
  TGI: > 100 µM
[38]
  TGI: > 100 µM
[39]
  TGI: > 100 µM
[40]
  TGI: 37 µM
[58]
  TGI: > 100 µM
[41]
  TGI: > 100 µM
[42]
  TGI: > 100 µM
[43]
  TGI: > 73.4 µM
[44]
  TGI: > 31.6 µM
[45]
  TGI: > 100 µM
[46]
  TGI: > 100 µM
[47]
  TGI: > 100 µM
[48]
  TGI: > 100 µM
[49]
  TGI: > 100 µM
[50]
  TGI: > 100 µM
[51]
  TGI: 69.2 µM
[52]
  TGI: > 72.4 µM
[59]
  TGI: > 100 µM
[53]
  TGI: > 47.2 µM
[54]
  TGI: > 100 µM

## O=C(O[C@@H](/C=C/c1ccccc1)P1(=O)N(Cc2ccccc2)[C@@H]2CCCC[C@H]2N1Cc1ccccc1)c1ccccc1
[1]
  TGI: > 100 µM
[2]
  TGI: 9.58 µM
[3]
  TGI: > 100 µM
[4]
  TGI: > 100 µM
[5]
  TGI: > 100 µM
[6]
  TGI: 5.42 µM
[7]
  TGI: > 100 µM
[8]
  TGI: > 100 µM
[9]
  TGI: > 100 µM
[10]
  TGI: > 100 µM
[11]
  TGI: > 100 µM
[12]
  TGI: > 100 µM
[13]
  TGI: > 100 µM
[14]
  TGI: > 100 µM
[16]
  TGI: > 100 µM
[17]
  TGI: 4.55 µM
[18]
  TGI: 6.33 µM
[19]
  TGI: 11.1 µM
[20]
  TGI: 9.22 µM
[21]
  TGI: > 100 µM
[22]
  TGI: 4.41 µM
[56]
  TGI: > 100 µM
[23]
  TGI: > 100 µM
[24]
  TGI: > 100 µM
[25]
  TGI: > 100 µM
[26]
  TGI: > 100 µM
[57]
  TGI: > 100 µM
[27]
  TGI: > 100 µM
[28]
  TGI: > 100 µM
[29]
  TGI: > 100 µM
[30]
  TGI: 4.16 µM
[31]
  TGI: > 100 µM
[32]
  TGI: > 100 µM
[33]
  TGI: 15.5 µM
[34]
  TGI: 68.7 µM
[35]
  TGI: > 100 µM
[36]
  TGI: > 100 µM
[37]
  TGI: > 100 µM
[39]
  TGI: 5.52 µM
[40]
  TGI: > 100 µM
[58]
  TGI: 80.9 µM
[41]
  TGI: 3.41 µM
[42]
  TGI: > 100 µM
[43]
  TGI: > 100 µM
[44]
  TGI: > 100 µM
[46]
  TGI: > 100 µM
[47]
  TGI: 9.18 µM
[48]
  TGI: > 100 µM
[49]
  TGI: 40.8 µM
[50]
  TGI: > 100 µM
[51]
  TGI: 6.24 µM
[52]
  TGI: 15.5 µM
[59]
  TGI: > 100 µM
[53]
  TGI: 27.4 µM
[54]
  TGI: > 100 µM
